According to US20110091570A1, “Compositions and Devices for Antisepsis and Anticoagulation” (priority 2008, published 2011):
“And” between values parts separate entries of the source, which are not always exact repeats. Identical values can stand only once.

How the values were obtained:
citrate blood [1] = experiment: Prothrombin time (PT), Thromborel S test; assay type: biochemical, human; conditions: for PT (%): Example 6, single volunteer; for Prothrombin time (PT) / Prothrombin time (PT), mean value: Example 7; for Prothrombin time (PT): individual subjects 1-11; for Prothrombin time (PT), mean value: mean of 11 subjects
Procedure: (§1) Whole blood was taken from volunteers and enriched with trisodium citrate (0.3 mL of a 0.106 molar solution per 3 mL whole blood) (S-Monovette®, Sarstedt, Nümbrecht, Germany). Routine coagulation tests were performed on the following samples:
(§2) The following commercial coagulation tests were performed according to the prescription of the manufacturer: prothrombin time (PT) was determined using Thromborel® S test (Dade Behring GmbH, Marburg, Germany); activated partial thromboplastin time (aPTT) was determined using Pathromtin* SL test (Dade Behring GmbH, Marburg, Germany); and thrombin time (TT) was determined using BC Thrombin Reagent test (Dade Behring GmbH, Marburg, Germany).
(§3) Whole blood was taken from a single volunteer and enriched with trisodium citrate (0.3 mL of a 0.106 molar solution per 3 mL whole blood) (S-Monovette®, Sarstedt, Nümbrecht, Germany). Portions of 1.8 mL citrate blood were mixed with 0.2 mL NCT in 0.9% saline. The following final (after dilution in blood) NCT concentrations were tested separately: 1% (55 mM); 0.5% (27.5 mM); 0.25% (13.75 mM); 0.1% (5.5 mM); 0.05% (2.75 mM); 0.025% (1.375 mM); and 0.01% (0.55 mM). A control without NCT was performed in parallel. The following commercial coagulation tests were performed according to the prescription of the manufacturer: prothrombin time (PT) was determined using Thromborel® S test (Dade Behring GmbH, Marburg, Germany), activated partial thromboplastin time (aPTT) was determined using Pathromtin* SL test (Dade Behring GmbH, Marburg, Germany); thrombin time (TT) was determined using BC Thrombin Reagent test (Dade Behring GmbH, Marburg, Germany); and fibrinogen was determined using Multifibren* U test (Dade Behring GmbH, Marburg, Germany).
(§4) Whole blood was taken from 11 volunteers and enriched with trisodium citrate (0.3 mL of a 0.106 molar solution per 3 mL whole blood) (S-Monovette®, Sarstedt, Nümbrecht, Germany). Commercial coagulation tests (as described in Example 6) were performed with the following samples: […]

citrate blood [2] = experiment: Routine coagulation tests, overall anticoagulant effect; assay type: biochemical, human
Procedure: as §1, §2, §3, §4

O=S(=O)(O)CCNCl [NCT, N-chlorotaurine]
prothrombin time (citrate blood [1]; Example 5, 1% NCT final concentration in citrate blood): above the test limits | PT (%) (citrate blood [1]; 0.01% (0.55 mM) NCT final): 91.4% | PT (%) (citrate blood [1]; 0.025% (1.375 mM) NCT final): 70.6% | PT (%) (citrate blood [1]; 0.05% (2.75 mM) NCT final): 33.4% | PT (%) (citrate blood [1]; 0.1% (5.5 mM) NCT final): <limit | PT (%) (citrate blood [1]; 0.25% (13.75 mM) NCT final): <limit | PT (%) (citrate blood [1]; 0.5% (27.5 mM) NCT final): <limit | PT (%) (citrate blood [1]; 1% (55 mM) NCT final): <limit | Prothrombin time (PT) (citrate blood [1]; 0.01% NCT): 70% and 59% and 95% and 62% and 88% and 61% and 86% and 72% and 77% and 74% and 79% | Prothrombin time (PT), mean value (citrate blood [1]; 0.01% NCT): 74.8% | Prothrombin time (PT) (citrate blood [1]; 0.025% NCT): 28% and 20% and 50% and 10% and 21% and 16% (2×) and 25% and 36% and 24% and 32% | Prothrombin time (PT), mean value (citrate blood [1]; 0.025% NCT): 25.3% | effect on the anticoagulant activity of heparin (citrate blood [2]; Example 5, 1% NCT final concentration): does not counteract the anticoagulant activity of heparin | anticoagulant activity of NCT alone (citrate blood [2]; Example 5, 1% NCT without heparin): has anticoagulant activity | anticoagulant effect (citrate blood [2]; NCT 0.55 mmol/L): significant anticoagulant effect | anticoagulant effect (citrate blood [2]; NCT 1.375 mmol/L): strong effect
